Data taken from patent US20190359653A1, “SELECTIVE PEPTIDE INHIBITORS OF FRIZZLED” (Genentech, Inc., priority 2016, published 2019).
Entries after “also recorded” stand apart in the source; their conditions may differ.

Tests used:
[1] = tested on: Wnt3a-mediated β-catenin signaling in HEK293-TB cells; type: cell-based
[2] = molecular target: T1, Wnt3a binding to FZD4 CRD (Homo sapiens, UniProt Q9ULV1); experiment: ELISA of biotinylated Wnt3a binding to FZD CRD-Fc; details: peptide 0-10 μM
T1 construct: hFZD4 CRD-Fc (cat no. 5847-FZ); purchased R&D systems 5847-FZ
T1 sequence (Q9ULV1 40-161 limits assumed): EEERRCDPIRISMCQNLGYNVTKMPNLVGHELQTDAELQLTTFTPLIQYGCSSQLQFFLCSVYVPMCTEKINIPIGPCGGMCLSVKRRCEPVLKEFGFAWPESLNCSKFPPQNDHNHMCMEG
Protocol: (§1) 384-well Maxisorp plates (cat. no. 464718; Thermo Scientific) were incubated with 30 μL of Neutravidin (cat. no. 31000, Thermo Scientific; 2 μg/mL in PBS) overnight at 4° C. Plates were then washed with PBST and blocked with PBS/1% BSA for 1 hour at RT and then washed with PBST prior to further processing. The binding assay was conducted in 96 well plates (cat no. 83007-374; VWR) which were blocked with PBS/1% BSA overnight at 4° C. hFZD4 CRD-Fc or hFZD7 CRD-Fc (63 ng/mL) were incubated with either Bio-Wnt3a (25 ng/mL) or Bio-Wnt5a (50 ng/mL) in the presence of 4-fold serial dilutions of the indicated peptide in PBS overnight at 4° C. All assays included hFZD9 CRD-mIgG2A protein as a negative control. hFZD7 CRD-His was suspended in 150 mM NaCl, 50 mM Tris-HCl at pH 7.5 and when used in assays an equal volume of the same buffer control was used. The binding assay mixtures were transferred to the Neutravidin coated plates and incubated for ˜1 h at RT. The wells were then washed with PBST, incubated with anti-hIgG1-HRP (1:10,000 suspended in PBS supplemented with 1% BSA; cat. no. A18817, Invitrogen), and washed again with PBST. The signal was developed with the addition of TMB reagent (following the manufacturer's recommendation; KPL; 50-76-00) for 15 min prior to the addition of an equal volume of 1 M phosphoric acid for 10 min Absorbance was measured at 450 nm using a Tekan M1000 plate reader. Values were collected and plotted using Prism Graphpad software. All assay conditions using peptides were at 1% DMSO final concentration.
Without being bound be theory, the substantial conformational change induced by dFz7-21 on hFZD7 CRD, as exemplified by the altered geometry of the lipid binding cavity, may facilitate the accommodation of two Wnt molecules simultaneously onto the hFZD7 CRD dimer (FIG. 4e-h).
Similar results were observed using Wnt3a. […] Binding of Wnt3a to FZD1 CRD, FZD2 CRD, and FZD7 CRD increased in the presence of dFz7-21 at concentrations below about 0.5 μM (FIG. 22E), with the most binding seen in the presence of 0.01 μM-0.05 μM dFz7-21. […] Fz7-21S had no effect on Binding of Wnt3a to any of the FZD CRDs tested (FIG. 22F).

[3] = tested on: Wnt5a binding to FZD1 CRD, FZD2 CRD, and FZD7 CRD; experiment: ELISA of biotinylated Wnt5a binding to FZD CRD-Fc
Protocol: as §1, with “concentration. […]” for “concentration.”
Briefly, the assays were performed using (a) FZD1 CRD-Fc, (b) FZD2 CRD-Fc, (c) FZD4 CRD-Fc, or (d) FZD7 CRD-Fc as the capture reagent and biotinylated-Wnt5a as the detection reagent. […] Streptavidin-HRP was used to detect biotinylated Wnt5a, and HRP activity was measured as a function of chemiluminescence detection at 428 nm. […]

[4] = tested on: mouse intestinal organoids; experiment: organoid budding / stem cell potential; type: cell-based; details: 48 h; dFz7-21 1-200 μM, Fz7-21S 200 μM; FIG. 18
Protocol: Mouse organoids were established from isolated crypts collected from the entire length of the small intestine and maintained as previously described (Sato et al. (2009) Nature 459, 262-265 (2009). All mouse derived tissue was performed according to the animal use guidelines of Genentech, a Member of the Roche Group, and the Institutional Animal Care and Use Committee, conforming to California State legal and ethical practices. Mouse sex was not selected for. Organoids were passaged at least twice per week and grown using IntestiCult Organoid growth media (cat. no. 06005; StemCell Technologies). […]
The organoid culture system faithfully recapitulates the intestinal epithelium including the presence of crypt-villus morphology. […] Therefore, stem cell function of the organoid population (a Wnt-dependent process) was quantitatively assessed by scoring the number of formed buds per organoid (Grabinger et al. (2014) “Ex vivo culture of intestinal crypt organoids as a model system for assessing cell death induction in intestinal epithelial cells and enteropathy.” Cell Death & Disease 5, e1228). […] Morphologies of representative mouse intestinal organoids after 48 h treatment are shown in FIGS. 17A-G. Next, organoid stem cell (SC) potential after peptide treatment was quantified. […]

Sequence	improvement compared to monomeric Fz7-21 in inhibiting Wnt3a signaling ([1]; FIG. 15)	effect on Wnt3a binding to FZD4 CRD [2]	peptide concentration with the most Wnt5a binding ([3]; FIGS. 22A, 22B)	budding events / organoid stem cell potential [4]	Reduction in fold potency vs. dimer [1]	inhibition of Wnt3a signaling [1]	effect on Wnt5a binding to FZD1, FZD2 and FZD7 CRD ([3]; peptide 0-10 μM)
LPSDDLEFWCHVMY [dFz7-21]	~40 fold	did not show any effect; also recorded: Neither Fz7-21 nor dFz7-21 had any effect	0.05 µM	dramatically reduced	–	–	–
LPSDDLEFWSHVMY [Fz7-21S, negative control]	–	showed no effect	–	did not show any major effects	>9,000 fold	not found to inhibit	showed no effect
